From patent publication US11897901B1, “6-amino-8,9-di(4-methoxyphenyl)-2-oxo-3,9-dihydro-2H-[1,3]thiazolo[5′,4′:5,6]pyrano[2,3-b]pyridine-7-carbonitrile as anticancer compound” (KING FAISAL UNIVERSITY, priority 2023, dated 2024)

Tests used:
[1] = tested on: human prostate cancer cells (PC3); experiment: Assessment of cytotoxicity by SRB assay, PC3 cells; assay type: cell-based; details: 0.01 μM to 100 μM, 72 h
Experimental: (§1) The human prostate cancer cells (PC3) and human osteosarcoma cells (MG-63) were obtained from Nawah Scientific Inc. (Mokatam, Cairo, Egypt) and cultured in DMEM (Dulbecco's modified eagle's medium), Gibco, USA, supplemented with fetal bovine serum (FBS) at a concentration of 10% and 100 U/mL of penicillin and streptomycin (PS). The Cells were incubated at 37° C. in a humidified environment that contained 5% CO2.
(§2) Cells were seeded in 96-well plates as aliquots of 100 μL cell suspension and incubated in a complete media for 24 h. Afterward, cells were treated with 6-amino-8,9-di(4-methoxyphenyl)-2-oxo-3,9-dihydro-2H-[1,3]thiazolo[5′,4′:5,6]pyrano[2,3-b]pyridine-7-carbonitrile (2) at diverse concentrations ranging from 0.01 μM to 100 μM for 72 h. Then, cells were fixed at 4° C. for one hour with 150 μL of 10% trichloroacetic acid (TCA). After washing the cells five times with distilled water, 70 μL of sulforhodamine (SRB) solution (0.4% w/v) was added and incubated for 10 min at room temperature in a dark place. […] Then, 150 μL of Tris pH 10.5 (10 mM) was added, and the absorbance was measured at 540 nm using a BMG LABTECH®-FLUOstar Omega microplate reader (Ortenberg, Germany). Half maximal inhibitory concentration (IC50) values were calculated for each experiment using GraphPad Prism 6 software. […]
(§3) The inhibition was calculated using the following equation: Inhibition %=100−Average Viability

[2] = tested on: human osteosarcoma cells (MG-63); experiment: Assessment of cytotoxicity by SRB assay, MG-63 cells; assay type: cell-based; details: 0.01 μM to 100 μM, 72 h
Experimental: as §1, §2, §3

COc1ccc(-c2c(C#N)c(N)nc3c2C(c2ccc(OC)cc2)c2sc(=O)[nH]c2O3)cc1 (stereo not drawn) [Compound 2, 6-amino-8,9-di(4-methoxyphenyl)-2-oxo-3,9-dihydro-2H-[1,3]thiazolo[5′,4′:5,6]pyrano[2,3-b]pyridine-7-carbonitrile]
antiproliferative activities against cancer cells (PC3) [1]: excellent antiproliferative activities | antiproliferative activities against osteosarcoma (MG-63) cells [2]: excellent antiproliferative activities | melting point: 234 to 236 °C
